Measurements from patent publication US8192854B2, “Microbial fuel cell treatment of ethanol fermentation process water” (priority 2009, dated 2012).

Tested on: inhibitor-consuming microbial consortium in a microbial fuel cell (MFC-A)
Assay: Effect of inhibitor concentration on electricity production, air-cathode MFC
Conditions: 0.1 g/L to 2 g/L (20.8 mM)
Method: After confirmation of electricity production from individual inhibitor molecules, the effect of inhibitor concentration on their removal and electricity production was studied. The experiments were conducted by adding each of the substrates individually, at the various concentrations to study substrate inhibition. From day 51 to 62, HB was used as the energy source for the MFC at concentrations from 0.1 to 1 g/L. From day 63 to day 82, 2-furfural was used as the energy source at a concentration from 0.05 to 2 g/L. From day 83 to day 101, VA was used as the substrate from 0.05 to 4 g/L, followed by use of HMF as substrate from day 129 to day 150 at a concentration from 0.2 to 2 g/L. The MFC was operated with 2-furfural as the substrate between day 102 to 128. Effect of acetate was studied in MFC-B up to a concentration of 10 g/L. The voltage output was monitored at each concentration for a period of up to five days. The effect of 2-furfural on electricity production was studied at a concentration from 0.1 g/L to 2 g/L (20.8 mM) using an air-cathode MFC. […] It should be noted that the substrate utilization was limited by the cathode side in an air-cathode MFC used in this study. […] The effect of acetate concentration was also studied in a different MFC (MFC-B) using a consortium enriched on acetate.

O=Cc1ccco1 [2-furfural]
inhibition of electricity production: No inhibition
